Data reported in patent US12459951B2, “Compounds that interact with RAS superfamily proteins for treatment of cancers, inflammatory diseases, rasopathies, and fibrotic disease” (SHY Therapeutics, LLC, priority 2022, dated 2025).

Experiments:
JNK phosphorylation = assay: JNK Activation Assay (western blot), Panc-1; format: cell-based, human; details: at 10 μM, Panc-1 pancreatic cancer cell line; starred symbols = activation
Outline: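 KRas G12C Panc-1 cells treated 6 h at 37 °C with compound at 10 μM (0.3% DMSO), or serial dilutions for IC50. In Method 1 cells were serum-starved overnight (0.5% FBS) then stimulated with 1.5 ng/ml EGF for 15 min; Method 2 used 10% FBS without stimulation. Phospho-JNK (Thr183/Tyr185) measured by western blot.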

cdc42 = target: T1, cdc42 (Homo sapiens, UniProt P60953); assay: Cdc42 GTP Binding Domain Inhibition Assay; details: read-out: Cdc42: % inh.
T1 construct: made in house
Description: (§1) Protocol for Cdc42 and Rheb GTP Binding Domain Inhibition Assay
(§2) The following method was developed as specific assay for cdc42 and Rheb proteins.
(§3) • 25 mM Tris-HCl, pH 7.4 • 27 mM KCl • 137 mM NaCl • 1 mM MgCl2 • 1 mM DTT Buffer-II: • 50 mM Tris-HCl, pH 7.0 • 1 mM MgCl2 • 1 mM DTT
(§4) The small GTPases proteins cdc42 and Rheb were expressed as His-tagged proteins. For the assay, the cdc42 and Rheb purified small GTPases proteins were diluted in Buffer-I or Buffer-II to a final concentration of 10-30 μg/mL. 200 μL of each diluted protein was added to a nickel-coated 96-well plate and incubated overnight at […]. Then the protein solution was discarded and 200 μL of Buffer-I or Buffer-II was added to each well in the presence of 1% DMSO. Compounds to be tested were added to the protein-coated wells at final concentration of 20 μM, and incubated for 3 hours at room temperature with and without 10-30 μg/mL of Sos added to the final hour of the incubation. When performing IC50 measurements a serial dilution of all tested concentrations was added. Then Cy3-GTP or Cy5-GTP was added to each well to a final concentration of 100 nM. The labeled GTP was incubated for 45 minutes at room temperature. Following GTP incubation, wells were washed 3× in Buffer-I or Buffer-II and 200 μL of Buffer-I or Buffer-II was added to each well. Following washes, the amount of bound labeled-GTP was measured using a SpectraMax M3 (Molecular Devices).

Rheb = target: T2, Rheb (Homo sapiens, UniProt Q15382); assay: Rheb GTP Binding Domain Inhibition Assay; details: read-out: Rheb: % inh.
T2 construct: made in house
Description: as §1, §2, §3, §4

[1] = Kinetic Solubility Assay in pH 7.4 Buffer + 2% DMSO; format: physicochemical; details: phosphate-buffered saline pH 7.4 with 2% DMSO, aqueous buffer, kinetic from dmso stock, 25° C., two hours
Outline: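 Compound from 20 mM DMSO stock diluted to nominal 400 μM in PBS pH 7.4 with 2% DMSO, in duplicate, shaken 2 h at 25° C., then filtered. Filtrate quantified by UV absorbance (230-550 nm) against 10-200 μM calibration curves; effective range ~2-400 μM.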

T1 sequence (P60953 whole entry, the tested form may be a part): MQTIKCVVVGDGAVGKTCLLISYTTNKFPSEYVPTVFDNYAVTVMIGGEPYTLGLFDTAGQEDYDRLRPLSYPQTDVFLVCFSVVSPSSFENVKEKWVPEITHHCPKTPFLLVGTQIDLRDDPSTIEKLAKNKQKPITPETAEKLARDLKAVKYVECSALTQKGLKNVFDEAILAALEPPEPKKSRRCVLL
T2 sequence (Q15382 whole entry, the tested form may be a part): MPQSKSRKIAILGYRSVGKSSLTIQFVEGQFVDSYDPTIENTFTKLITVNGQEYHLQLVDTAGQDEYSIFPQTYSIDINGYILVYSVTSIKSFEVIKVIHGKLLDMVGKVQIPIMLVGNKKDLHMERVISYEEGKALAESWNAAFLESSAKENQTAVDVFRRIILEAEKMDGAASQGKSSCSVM

SMILES	inhibition at 20 µM (cdc42) [%]	inhibition at 20 µM (Rheb) [%]	solubility at 2 h [1] [µM]	% inh of JNK in Panc-1 (JNK phosphorylation)
COc1cccc(-c2cn3nc(-c4nccn4C)nc(N[C@H]4C[C@H](OC)C4)c3c2-c2ccccc2)c1Cl [Compound 32, 6-(2-Chloro-3-methoxyphenyl)-N-((1r,3r)-3-methoxycyclobutyl)-2-(1-methyl-1H-imidazol-2-yl)-5-phenylpyrrolo[2,1-f][1,2,4]triazin-4-amine]	1 to 25	26 to 49	–	H (H = 100% inhibition)
COc1cccc(-c2cn3nc(-c4nccn4C)nc(N[C@H]4C[C@H](OC)C4)c3c2-c2ccccc2)c1F [Compound 42, 6-(2-Fluoro-3-methoxyphenyl)-N-((1r,3r)-3-methoxycyclobutyl)-2-(1-methyl-1H-imidazol-2-yl)-5-phenylpyrrolo[2,1-f][1,2,4]triazin-4-amine]	1 to 25	1 to 25	–	H* (H* ≥ 100% activation)
COCCO[C@H]1C[C@H](Nc2nc(-c3nccn3C)nn3cc(-c4cccc(OC)c4F)c(-c4ccccc4)c23)C1 [Compound 44, 6-(2-Fluoro-3-methoxyphenyl)-N-((1r,3r)-3-(2-methoxyethoxy)cyclobutyl)-2-(1-methyl-1H-imidazol-2-yl)-5-phenylpyrrolo[2,1-f][1,2,4]triazin-4-amine]	26 to 49	26 to 49	–	H* (H* ≥ 100% activation)
COc1cccc(-c2cn3nc(-c4nccn4C)nc(N[C@H]4C[C@H](OC)C4)c3c2-c2ccccn2)c1F [Compound 45, 6-(2-Fluoro-3-methoxyphenyl)-N-((1r,3r)-3-methoxycyclobutyl)-2-(1-methyl-1H-imidazol-2-yl)-5-(pyridin-2-yl)pyrrolo[2,1-f][1,2,4]triazin-4-amine]	26 to 49	50 to 75	–	H* (H* ≥ 100% activation)
COc1cccc(-c2cn3nc(-c4nccn4C)nc(N[C@H]4C[C@H](OC)C4)c3c2-c2ccn(C)n2)c1F [Compound 47, 6-(2-Fluoro-3-methoxyphenyl)-N-((1r,3r)-3-methoxycyclobutyl)-2-(1-methyl-1H-imidazol-2-yl)-5-(1-methyl-1H-pyrazol-3-yl)pyrrolo[2,1-f][1,2,4]triazin-4-amine]	1 to 25	1 to 25	–	H* (H* ≥ 100% activation)
COc1cc(Nc2nc(-c3nccn3C)nn3cc(-c4ccn(C(C)C)n4)c(C)c23)n[nH]1 [Compound 51, 6-(1-Isopropyl-1H-pyrazol-3-yl)-N-(5-methoxy-1H-pyrazol-3-yl)-5-methyl-2-(1-methyl-1H-imidazol-2-yl)pyrrolo[2,1-f][1,2,4]triazin-4-amine]	50 to 75	50 to 75	–	H* (H* ≥ 100% activation)
Cc1c(-c2ccn(C(C)C)n2)cn2nc(-c3nccn3C)nc(Nc3ccncc3)c12 [Compound 52, 6-(1-Isopropyl-1H-pyrazol-3-yl)-5-methyl-2-(1-methyl-1H-imidazol-2-yl)-N-(pyridin-4-yl)pyrrolo[2,1-f][1,2,4]triazin-4-amine]	1 to 25	0	–	0 (0 = 0% inhibition)
COc1cnc(Nc2nc(-c3nccn3C)nn3cc(-c4ccn(C(C)C)n4)c(C)c23)nc1 [Compound 56, 6-(1-Isopropyl-1H-pyrazol-3-yl)-N-(5-methoxypyrimidin-2-yl)-5-methyl-2-(1-methyl-1H-imidazol-2-yl)pyrrolo[2,1-f][1,2,4]triazin-4-amine]	26 to 49	50 to 75	–	H* (H* ≥ 100% activation)
Cc1c(-c2ccn(C(C)C)n2)cn2nc(-c3nccn3C)nc(Nc3ncco3)c12 [Compound 60, N-(6-(1-Isopropyl-1H-pyrazol-3-yl)-5-methyl-2-(1-methyl-1H-imidazol-2-yl)pyrrolo[2,1-f][1,2,4]triazin-4-yl)oxazol-2-amine]	1 to 25	26 to 49	–	H* (H* ≥ 100% activation)
Cc1c(-c2ccn(C(C)C)n2)cn2nc(-c3nccn3C)nc(Nc3ccn(C)n3)c12 [Compound 61, 6-(1-Isopropyl-1H-pyrazol-3-yl)-5-methyl-2-(1-methyl-1H-imidazol-2-yl)-N-(1-methyl-1H-pyrazol-3-yl)pyrrolo[2,1-f][1,2,4]triazin-4-amine]	76 to 100	76 to 100	–	H* (H* ≥ 100% activation)

More lines, main results first:

inhibition at 20 µM (cdc42) [%]	inhibition at 20 µM (Rheb) [%]	solubility at 2 h [1] [µM]	SMILES	% inh of JNK in Panc-1 (JNK phosphorylation)
76 to 100	50 to 75	–	CCn1ccc(-c2cn3nc(-c4nccn4C)nc(Nc4cc(OC)ncn4)c3c2C)n1 [Compound 64, 6-(1-Ethyl-1H-pyrazol-3-yl)-N-(6-methoxypyrimidin-4-yl)-5-methyl-2-(1-methyl-1H-imidazol-2-yl)pyrrolo[2,1-f][1,2,4]triazin-4-amine]	H* (H* ≥ 100% activation)
26 to 49	0	–	COc1cc(Nc2nc(-c3nccn3C)nn3cc(-c4cccc(OC)n4)c(C)c23)ncn1 [Compound 65, 6-(6-Methoxypyridin-2-yl)-N-(6-methoxypyrimidin-4-yl)-5-methyl-2-(1-methyl-1H-imidazol-2-yl)pyrrolo[2,1-f][1,2,4]triazin-4-amine]	H* (H* ≥ 100% activation)
76 to 100	50 to 75	–	COc1ccc(-c2cn3nc(-c4nccn4C)nc(Nc4cc(OC)ncn4)c3c2C)cn1 [Compound 66, 6-(6-Methoxypyridin-3-yl)-N-(6-methoxypyrimidin-4-yl)-5-methyl-2-(1-methyl-1H-imidazol-2-yl)pyrrolo[2,1-f][1,2,4]triazin-4-amine]	H* (H* ≥ 100% activation)
26 to 49	50 to 75	–	Cc1c(-c2ccn(C(C)C)n2)cn2nc(-c3nccn3C)nc(Nc3nnc(C4CC4)o3)c12 [Compound 67, 5-Cyclopropyl-N-(6-(1-isopropyl-1H-pyrazol-3-yl)-5-methyl-2-(1-methyl-1H-imidazol-2-yl)pyrrolo[2,1-f][1,2,4]triazin-4-yl)-1,3,4-oxadiazol-2-amine]	H* (H* ≥ 100% activation)
0	1 to 25	–	Cc1c(-c2ccn(C(C)C)n2)cn2nc(-c3nccn3C)nc(Nc3cc(C4CC4)no3)c12 [Compound 69, 3-Cyclopropyl-N-(6-(1-isopropyl-1H-pyrazol-3-yl)-5-methyl-2-(1-methyl-1H-imidazol-2-yl)pyrrolo[2,1-f][1,2,4]triazin-4-yl)isoxazol-5-amine]	H* (H* ≥ 100% activation)
1 to 25	1 to 25	–	Cc1c(-c2ccn(C(C)C)n2)cn2nc(-c3nccn3C)nc(Nc3nc(C4CC4)no3)c12 [Compound 70, 3-Cyclopropyl-N-(6-(1-isopropyl-1H-pyrazol-3-yl)-5-methyl-2-(1-methyl-1H-imidazol-2-yl)pyrrolo[2,1-f][1,2,4]triazin-4-yl)-1,2,4-oxadiazol-5-amine]	H* (H* ≥ 100% activation)
1 to 25	1 to 25	–	COc1ccc(Nc2nc(-c3nccn3C)nn3cc(-c4ccn(C(C)C)n4)c(C)c23)cn1 [Compound 71, 6-(1-Isopropyl-1H-pyrazol-3-yl)-N-(6-methoxypyridin-3-yl)-5-methyl-2-(1-methyl-1H-imidazol-2-yl)pyrrolo[2,1-f][1,2,4]triazin-4-amine]	H* (H* ≥ 100% activation)
50 to 75	50 to 75	–	Cc1c(-c2ccn(C(C)C)n2)cn2nc(-c3nccn3C)nc(Nc3ccn(C(C)C)n3)c12 [Compound 72, N,6-bis(1-Isopropyl-1H-pyrazol-3-yl)-5-methyl-2-(1-methyl-1H-imidazol-2-yl)pyrrolo[2,1-f][1,2,4]triazin-4-amine]	H* (H* ≥ 100% activation)
–	–	< 10	Cc1c(-c2ccn(C)n2)cn2nc(-c3nccn3C)nc(Nc3cc(-c4ccccn4)ccn3)c12 [Compound 248, N-([2,4′-Bipyridin]-2′-yl)-5-methyl-2-(1-methyl-1H-imidazol-2-yl)-6-(1-methyl-1H-pyrazol-3-yl)pyrrolo[2,1-f][1,2,4]triazin-4-amine]	–
